Measurements as given in ChEMBL document CHEMBL3885881, “DrugMatrix”.

Organism: Rattus norvegicus
Assay: DrugMatrix - Regimen: Daily Repeat
Type: toxicity, organism-based, Sprague-Dawley
Parameters: regimen Daily Repeat, gender Male, age 6-8 weeks
Conditions: in vivo, po, route oral GAVAGE, vehicle 60 % PEG400; for ABSOLUTE BASOPHIL / ABSOLUTE EOSINOPHIL / ABSOLUTE LYMPHOCYTE / ABSOLUTE MONOCYTE / ABSOLUTE SEGMENTED NEUTROPHIL / BASOPHIL / EOSINOPHIL / ERYTHROCYTE COUNT / HEMATOCRIT / HEMOGLOBIN / LEUKOCYTE COUNT / LYMPHOCYTE / MEAN CORPUSCULAR HEMOGLOBIN / MEAN CORPUSCULAR HEMOGLOBIN CONCENTRATION / MEAN CORPUSCULAR VOLUME / MONOCYTE / NEUTROPHIL / NUCLEATED RED BLOOD CELLS / PLATELET COUNT: tissue Blood; for ALANINE AMINOTRANSFERASE / ALBUMIN / ALKALINE PHOSPHATASE / ASPARTATE AMINOTRANSFERASE / BLOOD UREA NITROGEN / CARBON DIOXIDE / CHLORIDE / CHOLESTEROL / CREATINE PHOSPHOKINASE / CREATININE / GLUCOSE / LACTATE DEHYDROGENASE / LIPASE / PHOSPHORUS / POTASSIUM / SODIUM / TOTAL BILIRUBIN / TOTAL PROTEIN / URIC ACID: tissue Plasma
[1] = 0 mg/kg, 72 h, dose level Control, time 3 day
[2] = 0 mg/kg, 120 h, dose level Control, time 5 day
[3] = 0.001 mg/kg, 72 h, dose level Low, time 3 day

N[C@@H](Cc1cc(I)c(Oc2ccc(O)c(I)c2)c(I)c1)C(=O)O [LIOTHYRONINE]
ABSOLUTE BASOPHIL [1]: 0 CELLS/uL | ABSOLUTE EOSINOPHIL [1]: 48.67 CELLS/uL | ABSOLUTE LYMPHOCYTE [1]: 11723.33 CELLS/uL | ABSOLUTE MONOCYTE [1]: 132.67 CELLS/uL | ABSOLUTE SEGMENTED NEUTROPHIL [1]: 1362 CELLS/uL | BASOPHIL [1]: 0% | EOSINOPHIL [1]: 0.33% | ERYTHROCYTE COUNT [1]: 5.61 x10E6/uL | HEMATOCRIT [1]: 33.53% | HEMOGLOBIN [1]: 13.13 G/DL | LEUKOCYTE COUNT [1]: 13.27 x10E3/uL | LYMPHOCYTE [1]: 88.33% | MEAN CORPUSCULAR HEMOGLOBIN [1]: 23.4 pg | MEAN CORPUSCULAR HEMOGLOBIN CONCENTRATION [1]: 39.17 G/DL | MEAN CORPUSCULAR VOLUME [1]: 59.8 fL | MONOCYTE [1]: 1% | NEUTROPHIL [1]: 10.33% | NUCLEATED RED BLOOD CELLS [1]: 0.67 /100WBC | PLATELET COUNT [1]: 967.33 x10E3/uL | ALANINE AMINOTRANSFERASE [1]: 60.33 u/L | ALBUMIN [1]: 4.3 G/DL | ALKALINE PHOSPHATASE [1]: 403.33 u/L | ASPARTATE AMINOTRANSFERASE [1]: 87 u/L | BLOOD UREA NITROGEN [1]: 14.67 mg/dL | CARBON DIOXIDE [1]: 31 mmol/L | CHLORIDE [1]: 103 MEQ/L | CHOLESTEROL [1]: 82.33 mg/dL | CREATINE PHOSPHOKINASE [1]: 376.33 u/L | CREATININE [1]: 0.17 mg/dL | GLUCOSE [1]: 146.33 mg/dL | LACTATE DEHYDROGENASE [1]: 196.33 u/L | LIPASE [1]: 12.33 u/L | PHOSPHORUS [1]: 11.43 mg/dL | POTASSIUM [1]: 6.79 MEQ/L | SODIUM [1]: 147.27 MEQ/L | TOTAL BILIRUBIN [1]: 0.2 mg/dL | TOTAL PROTEIN [1]: 6.13 G/DL | URIC ACID [1]: 1.33 mg/dL | ABSOLUTE BASOPHIL [2]: 0 CELLS/uL | ABSOLUTE EOSINOPHIL [2]: 19 CELLS/uL | ABSOLUTE LYMPHOCYTE [2]: 4849 CELLS/uL | ABSOLUTE MONOCYTE [2]: 38 CELLS/uL | ABSOLUTE SEGMENTED NEUTROPHIL [2]: 660.67 CELLS/uL | BASOPHIL [2]: 0% | EOSINOPHIL [2]: 0.33% | ERYTHROCYTE COUNT [2]: 4.95 x10E6/uL | HEMATOCRIT [2]: 29.67% | HEMOGLOBIN [2]: 11.53 G/DL | LEUKOCYTE COUNT [2]: 5.57 x10E3/uL | LYMPHOCYTE [2]: 87.67% | MEAN CORPUSCULAR HEMOGLOBIN [2]: 23.33 pg | MEAN CORPUSCULAR HEMOGLOBIN CONCENTRATION [2]: 38.9 G/DL | MEAN CORPUSCULAR VOLUME [2]: 59.87 fL | MONOCYTE [2]: 0.67% | NEUTROPHIL [2]: 11.33% | NUCLEATED RED BLOOD CELLS [2]: 0.33 /100WBC | PLATELET COUNT [2]: 653.33 x10E3/uL | ALANINE AMINOTRANSFERASE [2]: 48.33 u/L | ALBUMIN [2]: 4.27 G/DL | ALKALINE PHOSPHATASE [2]: 396 u/L | ASPARTATE AMINOTRANSFERASE [2]: 75.67 u/L | BLOOD UREA NITROGEN [2]: 15 mg/dL | CARBON DIOXIDE [2]: 31.33 mmol/L | CHLORIDE [2]: 103 MEQ/L | CHOLESTEROL [2]: 76.33 mg/dL | CREATINE PHOSPHOKINASE [2]: 182.67 u/L | CREATININE [2]: 0.2 mg/dL | GLUCOSE [2]: 181 mg/dL | LACTATE DEHYDROGENASE [2]: 88 u/L | LIPASE [2]: 8.33 u/L | PHOSPHORUS [2]: 12.33 mg/dL | POTASSIUM [2]: 6.09 MEQ/L | SODIUM [2]: 146.47 MEQ/L | TOTAL BILIRUBIN [2]: 0.17 mg/dL | TOTAL PROTEIN [2]: 6.3 G/DL | URIC ACID [2]: 1.43 mg/dL | ABSOLUTE BASOPHIL [3]: 0 CELLS/uL | ABSOLUTE EOSINOPHIL [3]: 72.67 CELLS/uL | ABSOLUTE LYMPHOCYTE [3]: 12680.33 CELLS/uL | ABSOLUTE MONOCYTE [3]: 379.67 CELLS/uL | ABSOLUTE SEGMENTED NEUTROPHIL [3]: 1067.33 CELLS/uL | BASOPHIL [3]: 0% | EOSINOPHIL [3]: 0.67% | ERYTHROCYTE COUNT [3]: 5.31 x10E6/uL | HEMATOCRIT [3]: 34.1% | HEMOGLOBIN [3]: 13.1 G/DL | LEUKOCYTE COUNT [3]: 14.2 x10E3/uL | LYMPHOCYTE [3]: 89.33% | MEAN CORPUSCULAR HEMOGLOBIN [3]: 24.67 pg | MEAN CORPUSCULAR HEMOGLOBIN CONCENTRATION [3]: 38.47 G/DL | MEAN CORPUSCULAR VOLUME [3]: 64.17 fL | MONOCYTE [3]: 2.33% | NEUTROPHIL [3]: 7.67% | NUCLEATED RED BLOOD CELLS [3]: 0 /100WBC | PLATELET COUNT [3]: 1001 x10E3/uL | ALANINE AMINOTRANSFERASE [3]: 51 u/L | ALBUMIN [3]: 4.37 G/DL | ALKALINE PHOSPHATASE [3]: 321 u/L | ASPARTATE AMINOTRANSFERASE [3]: 82.33 u/L | BLOOD UREA NITROGEN [3]: 17.33 mg/dL | CARBON DIOXIDE [3]: 29.67 mmol/L | CHLORIDE [3]: 105.33 MEQ/L | CHOLESTEROL [3]: 79.67 mg/dL | CREATINE PHOSPHOKINASE [3]: 347 u/L | CREATININE [3]: 0.16 mg/dL | GLUCOSE [3]: 144 mg/dL | LACTATE DEHYDROGENASE [3]: 167.33 u/L | LIPASE [3]: 13 u/L | PHOSPHORUS [3]: 12.4 mg/dL | POTASSIUM [3]: 6.56 MEQ/L | SODIUM [3]: 146.23 MEQ/L | TOTAL BILIRUBIN [3]: 0.2 mg/dL | TOTAL PROTEIN [3]: 6.03 G/DL
